These results are taken from patent US10561712B2, “Treatment of cancer and inhibition of metastasis using hemoglobin beta subunit” (UNIVERSITY OF MARYLAND, BALTIMORE, priority 2014, dated 2020).

The test system of experiment [1] is neuroblastoma cells. As to the kind of experiment: Viability of neuroblastoma cells with N- and C-terminal CNBr fragments of HBB. Conditions: MTS-based proliferation assay and trypan blue exclusion; 72 hr; FIG. 5B. Type of experiment: cell-based, human. As for the experimental part:
(§1) Neuroblastoma cells were seeded (3×10^4 per well) in a 96-well flat-bottomed tissue culture plate. After an incubation of 24 hr, cells were washed and incubated with the relevant factors (detailed in the following sections) diluted in starvation medium (RPMI-1640 containing 5% bovine serum albumin (BSA); Biological Industries, Kibbutz Beit Haemek, Israel; Sigma-Aldrich). Cell viability under normal conditions (starvation medium containing BSA) or after incubation with the relevant factors was monitored after 72 hr using an XTT (XTT cell proliferation kit; Biological Industries) or MTS-based (CellTiter 96® AQueous One Solution Cell Proliferation Assay; Promega) viability assays according to manufacturer instructions. Cells were also counted using the trypan-blue exclusion assay to verify the results obtained by XTT and MTS-based viability assays.
Human HBB was incubated at a concentration of 2 mg/ml with 50 mg/ml CNBr (Sigma-Aldrich) in 5% trifluoroacetic acid (Halocarbon). […] After 72 hr of incubation cell viability was assessed as described below.
In order to pin-point the active fragment of the human HBB protein, the protein was cleaved to two fragments using cyanogen bromide (CNBr). […] Significance was evaluated using Student's t-test for each variant incubated with N- or C-terminal fragments of human HBB compared to incubation with control media (not shown).
(In general: Tetrazolium dyes change colour on reduction, which living cells bring about.)

In experiment [2] the test system is MicroNB cells (human neuroblastoma lung micrometastatic variant, MHH-NB11). Kind of experiment: MTS-based viability assay, MicroNB cells. Type of experiment: cell-based. The following applies: 72 hr incubation, versus control media.
From the text: (§2) The human neuroblastoma lung micrometastatic (MicroNB) and macrometastatic (MacroNB) variants were generated using a mouse model for human neuroblastoma metastasis (Nevo et al., 2008) from the parental cell lines MHH-NB11 (Pietsch et al., 1988) and SH-SY5Y (Biedler et al., 1978) as detailed here (Edry Botzer et al., 2011), and were maintained in culture as previously described (Nevo et al., 2008). The MicroNB and MacroNB variants were previously designated DisNB and MetNB, respectively (Edry Botzer et al., 2011). Authentication of MicroNB and MacroNB cells was performed by short tandem repeat analysis of DNA using the Type-it Microsatellite PCR Kit (Qiagen, Valencia, Calif.), for the genes published by the American Type Culture Collection (ATCC) (Manassas, Va.). The parental cell line MHH-NB11 was kindly provided by Dr. T. Pietsch (Department of Neuropathology, University of Bonn Medical Center, Bonn, Germany).
as §1
Circular dichroism analysis of human hemoglobin (HB), hemoglobin subunit alpha (HBA) and subunit beta (HBB) indicated a helical structure for all three proteins (FIG. 3C). […] Neuroblastoma cells were seeded (3×10^4 per well) in a 96 well flat-bottomed tissue culture plate. After 24 hr of incubation cells were washed and incubated with human HBB dissolved in starvation medium (RPMI 5% BSA) to the indicated concentrations. Cell viability under normal conditions (starvation medium) or after incubation with human HBB was monitored after an incubation of 72 hr using an MTS-based viability assay (CellTiter 96® AQueous One Solution Cell Proliferation Assay, Promega) according to the manufacturer instructions. Data are means of three independent experiments±SD. Significance was evaluated using Student's t-test for each variant incubated with human HBB compared to incubation with control media (con).

The test system of experiment [3] is MicroNB cells inoculated to the adrenal gland. As to the kind of experiment: Orthotopic MicroNB neuroblastoma model, intranasal Metox versus scrambled-Metox (Example 8). The format is in vivo, athymic nude mice. Conditions: intranasal 1 mg/kg once a week for 8 weeks. The method, then:
(§3) An orthotopic inoculation to the adrenal gland of athymic nude mice was performed with either 50 μl of PBSX1 supplemented with 5% BSA, or with 1×10^6 MicroNB cells (generated as described previously (Edry Botzer et al., 2011)) suspended in 50 μl of PBSX1 supplemented with 5% BSA. The intra-adrenal inoculation was performed as detailed here (Nevo et al., 2008). In short, anesthesia was induced by ketamine (100 mg/kg body weight) and 2% xylazine (10 mg/kg body weight) administered intraperitoneally. Tumor cells (1×10^6/50 μl) or PBSX1 5% BSA (50 μl) were injected orthotopically into the left adrenal gland of nude mice.
(§4) The development of local tumors in the adrenal gland was monitored and measured weekly with an external digital caliper. The tumor volume in mm^3 was calculated by the ellipsoid volume calculation formula: Volume=[…] (Tomayko and Reynolds, 1989). At the end of the experiments, local adrenal tumors were weighed.
(§5) For examining the presence of micrometastatic cells in the lungs and bone marrow of mice, organs were harvested at the end of the experiment, and immediately snap frozen in dry ice. RNA was isolated from frozen tissues and used for the generation of first-strand cDNA using an M-MLV Reverse Transcriptase (See below, “RNA preparation and Reverse Transcription Polymerase Chain Reaction”). Quantification of human cells in mouse organs was determined by quantitative real-time PCR (qRT-PCR) assays.
(§6) Mice were orthotopically inoculated with MicroNB cells to the adrenal gland to generate local adrenal tumors and lung and bone marrow micrometastasis (see “Orthotopic inoculation of tumor cells”). Fourteen days post tumor cell inoculation mice were treated either intravenously or intranasally with 1 mg/kg (0.02 mg/mouse) of the short inhibitory human HBB peptide, Metox, once a week for 8 weeks.
(§7) For intranasal administration of Metox, the lyophilized peptide was dissolved prior to each administration in Dimethyl Sulfoxide (DMSO) (Sigma-Aldrich) to a concentration of 0.013 mg/μl, and then diluted in sterile PBSX1 to a concentration of 0.4 μg/μl. The dissolved peptide was filtered (0.2 μm) and mice were forced to inhale 50 μl of Metox (0.02 mg/mouse). Control group was forced to inhale 50 μl of a control scrambled peptide, scrambled-Metox (see “Solid-phase synthesis of Metox and scrambled-Metox peptides”).
In an experiment similar to that described in Example 7, athymic nude mice were orthotopically inoculated with MicroNB cells to the adrenal gland. […] Mice were monitored for tumor volume on a weekly basis.

The test system is the same in experiment [4]. Kind of experiment: Orthotopic MicroNB neuroblastoma model, HBB11p i.v. or inhaled versus PBS (Example 7). Type of experiment: in vivo, athymic nude mice. The following applies: for size of local tumors versus PBS-treated mice: FIG. 7B, 7C. The method, then: as §3, §4, §5, §6, §7
Twenty four mice were orthotopically inoculated to the adrenal gland with MicroNB cells. Two weeks post inoculation, mice were either intravenously (IV) injected with HBB11p or PBS, or forced to inhale a droplet of soluble HBB11p, once a week for 8 weeks (FIG. 7A). Mice were monitored weekly for tumor volume. At the end of the experiment, local tumors were weighed and organs were harvested and examined for human neuroblastoma cells and for HBB2 expression using real time PCR (FIG. 7A).

The test system of experiment [5] is MacroNB cells (human neuroblastoma lung macrometastatic variant). Kind of experiment: MTS-based viability assay, MacroNB cells. The format is cell-based. The following applies: 72 hr incubation, versus control media.
From the text: as §2
Neuroblastoma cells were seeded (3×10^4 per well) in a 96-well flat-bottomed tissue culture plate. […] Cell viability under normal conditions (starvation medium containing BSA) or after incubation with the relevant factors was monitored after 72 hr using an XTT (XTT cell proliferation kit; Biological Industries) or MTS-based (CellTiter 96® AQueous One Solution Cell Proliferation Assay; Promega) viability assays according to manufacturer instructions. Cells were also counted using the trypan-blue exclusion assay to verify the results obtained by XTT and MTS-based viability assays.
Circular dichroism analysis of human hemoglobin (HB), hemoglobin subunit alpha (HBA) and subunit beta (HBB) indicated a helical structure for all three proteins (FIG. 3C). […] Cell viability under normal conditions (starvation medium) or after incubation with human HBB was monitored after an incubation of 72 hr using an MTS-based viability assay (CellTiter 96® AQueous One Solution Cell Proliferation Assay, Promega) according to the manufacturer instructions. […] Significance was evaluated using Student's t-test for each variant incubated with human HBB compared to incubation with control media (con).

Experiment [6] relates to MCF-7 breast carcinoma cells. As to the kind of experiment: Viability of cancerous cell lines, MCF-7. The following applies: MTS-based assay; FIG. 3E. As for the experimental part: as §1
When incubated with the highest amount of HBB (100 μg), the viability of the following cell lines was inhibited: the breast cancer cell lines T47D and MCF-7, the prostate cancer cell line 22RVi, the cervical cancer cell line Hela, and the melanoma cell lines RALL and RKTJ.

Setting [7] is: HBB11p once a week for 8 weeks, data not shown.

On to “C-terminal fragment: 91 amino acid C-terminal fragment of human HBB from CNBr cleavage, SEQ ID NO:4”, for which the “influence on neuroblastoma cell viability (in words)” value in experiment [1] is on record as “responsible for the inhibitory activity”.
For “ENFRLLGNVLVCVLA (listed as Homo sapiens) [HBB11p]”, in experiment [2] (listed as Peptide number 11), the “influence on viability of MicroNB cells (in words)” value is on record as “significantly inhibited the viability”. Moreover, the “influence on viability of MicroNB cells (in words)” value in experiment [2] (listed as peptide 11) is given as “even greater than that caused by HBB”. For the same substance, the “weight of local tumors of scrambled-Metox treated mice relative to Metox treated mice” value in experiment [3] (70 days post inoculation, FIG. 8C, 8D) is on record as “significantly higher”. For the same substance, the “metastatic load of MicroNB cells in lungs versus scrambled-Metox” value in experiment [3] (Real-Time PCR, FIG. 8E) is given as “significantly lower”. In addition, in experiment [3] (Real-Time PCR, FIG. 8F), the “metastatic load of MicroNB cells in bone marrow versus scrambled-Metox” value is on record as “significantly lower”. In addition, in experiment [3] (twenty days after inoculation, more significant with time, FIG. 8B), the “local tumor volume, Metox versus scrambled-Metox treated mice” value was “a difference was apparent”. In experiment [4] (setting [7]), the “bone marrow metastasis versus PBS-treated mice” value is reported as “significantly inhibited as well”, the “liver metastasis versus PBS-treated mice” value was “significantly inhibited as well” and the “spleen metastasis versus PBS-treated mice” value is “significantly inhibited as well”. Besides, the “lung metastasis versus PBS-treated mice” value in experiment [4] (HBB11p once a week for 8 weeks, real time PCR, FIG. 7D) is recorded as “significantly inhibited”. In addition, in experiment [4] (inhaled droplet of HBB11p once a week for 8 weeks), the “size of local tumors versus PBS-treated mice” value is recorded as “significantly smaller”. Moreover, the “size of local tumors versus PBS-treated mice” value in experiment [4] (intravenous HBB11p once a week for 8 weeks) was “significantly smaller”.
For “HBA: alpha subunit of human hemoglobin, HPLC-separated from native human hemoglobin [reference compound]”, the “influence on viability of MicroNB cells (in words)” value in experiment [2] is listed as “did not influence cell viability”. Moreover, in experiment [5], the “influence on viability of MacroNB cells (in words)” value is recorded as “did not influence cell viability”.
As to “HBB2: beta 2 subunit of mouse hemoglobin, SEQ ID NO:1; HPLC peak no. 4 of mouse lung-derived factors”, the “influence on viability of MicroNB cells (in words)” value in experiment [2] was “inhibited cell viability”. In addition, the “influence on viability of MacroNB cells (in words)” value in experiment [5] is on record as “inhibited cell viability”.
With “N-terminal fragment: N-terminal fragment of human HBB from CNBr cleavage, SEQ ID NO:3”, the “influence on neuroblastoma cell viability (in words)” value in experiment [1] is listed as “exhibited an inhibitory effect however to a lesser extent”.
For “whole human hemoglobin protein: native human hemoglobin (Sigma), whole protein [reference compound]”, the “influence on viability of MCF-7 breast carcinoma cells (in words)” value in experiment [6] is reported as “inhibited cell viability as well but not to the same extent as HBB”.
